# Where no end group is shown, it is not given here.
# Assays:
# [1] = system: human peripheral blood mononuclear cells (PBMCs); test: LPS antagonist activity: TNFα secretion by stimulated human PBMCs (capture ELISA); assay type: cell-based; settings: 1 μg/ml + W3110 (10 ng/ml), 8 hr
# Experimental: W3110 LPS (also cultured at 37° C.) from 1 ng/ml to 100 ng/ml alone and W3110 LPS (10 ng/ml) mixed with synthetic lipid IVA (1 μg/ml) were used as controls. For this, PBMCs were obtained from 50 ml of whole blood and resuspended in complete medium (CM; RPMI containing pyruvate, glutamine, PenStrep, and 10% endotoxin-free human AB serum (Life Technologies) at a density of 6×10^6 PBMCs/ml. CM containing W3110 LPS, MLK986 LPS or synthetic lipid IVA was placed into duplicate wells of a 96-well flat bottom culture plate (Costar) at double the target final concentration. An equal volume of CM containing the PBMCs then was added to these wells and the culture plates were incubated at 37° C. in 5% CO2 for 8 hr. The supernatants were then removed and stored at […] Quantitation of TNFα, IL-1β, and IL-6 in these culture supernatants was achieved by capture ELISA (R&D Systems).
# BALB/c mice [2] = test: Adjuvant activity with protein antigen gp120: anti-gp120 serum IgG by ELISA; assay type: in vivo
# Experimental: Vaccine preparations containing an LPS antagonist and a protein antigen can be prepared in the following manner. Each vaccine preparation contained 5 μg of fully glycosylated endotoxia-free HIV-1MN gp120 (Virostat Cat. No. 8919, Lot AM735). Preparations comprised of gp120 and LPS antagonist were formulated essentially as outlined in Example 2 above except that each dose contained 5 μg of gp120 combined with a range of LPS antagonist doses (from 1 μg to 10 μg). The LPS antagonist was isolated from MLK986 cultured at 37° C. as described above.
# Groups of 3 BALB/c mice were given a single dose of a given preparation of gp120 and LPS antagonist subcutaneously (primary vaccination). To determine the immunogenicity of the antigen in the absence of LPS antagonist, a group of BALB/c mice were vaccinated with 5 μg gp 120 formulated alone. For comparative purposes, an additional group of mice were vaccinated with 5 μg of gp120 formulated with Alum, as described (Coligan, et al., 1994, supra).
# To measure the immunogenicity of each formulation, sera were collected from the mice in each group before and on day 14 after primary vaccination, as described in Example 2 above. On day 21 after the primary vaccination, mice were given a booster vaccination containing […] of gp120 formulated with matched doses of LPS antagonist, as was given in the primary vaccination. Ten and 17 days after the boost, venous blood was collected from the mice, and sera were obtained as outlined above. The level of anti-gp120 IgG in pooled serum samples was determined by ELISA as described in Example 2 above, except that gp120 was used in place of Hep-Tat in the first coating step. The results of the ELISA were obtained by reading the optical density of each well using a Molecular Dynamics ELISA plate reader and are shown in Table 3 below. The data are presented as dilution of the sera to achieve 50% saturation.
# BALB/c mice [3] = test: Adjuvant activity with peptide antigen Hep-Tat: Hep-Tat-specific serum IgG by ELISA; assay type: in vivo
# Experimental: Vaccine preparations containing a peptide antigen and an LPS antagonist were prepared in the following manner. Each vaccine preparation contained […] of the vaccine peptide (herein designated “Hep-Tat”) that corresponds to the heparin-binding domain of the HIV-1 regulatory protein Tat and is comprised of the following sequence (GLGIS YGRKKRRQR; SEQ ID NO: 1). The peptide antigen was prepared synthetically as a Multiple Antigen Peptide (MAPS;Genosys). To formulate the preparations comprised of Hep-Tat and LPS antagonist (purified as outlined above), […] of Hep-Tat was combined with a range of LPS antagonist doses (from […]). The LPS antagonist was isolated from MLK986 cultured at 37° C. as described in. Example 1.
# Groups of three BAL Blc mice were injected intraperitoneally with a single dose of a given preparation of Hep-Tat and LPS antagonist (i.e., primary vaccination). To determine the immunogenicity of the antigen in the absence of LPS antagonist, a group of BALB/c mice were vaccinated with 50 μg Hep-Tat formulated-alone. For comparative purposes, an additional group of mice was vaccinated with 50 μg Hep-Tat formulated with Alum, as described (Coligan, et al., 1994, supra).
# To measure the immunogenicity of each formulation, venous blood was collected from the mice in each group before and on day 14 after primary vaccination, as described (Coligan, et al., 1994, supra). Serum was then obtained from each of these blood samples using standard techniques (Coligan, et al., 1994, supra). On day 21 after the primary vaccination, mice were given a booster vaccination containing the same dose of Hep-Tat and LPS antagonist or alum as was given in the primary vaccination. Seven days after the boost, venous blood was collected from the mice in each, and sera were obtained as outlined above. Each of the serum samples from individual groups were pooled and the level of Hep-Tat-specific IgG was ascertained by ELISA. In short, plastic 96 well ELISA plates (Immunol 2 Dynatech) were coated with Hep-Tat, by adding […] of Hep-Tat at 10 μg/ml suspended in PBS (Phosphate Buffer Saline) pH 7.4 in each well, and incubating overnight at 4° C. The plates were subsequently washed to remove unbound peptide and then 100 μl of blocking solution (comprised of 1% (w/v) Bovine Serum Albumin (BSA; Sigma) suspended in PBS) was added to each well. […] The result of the ELISA were obtained by reading the optical density of each well using a Molecular Dynamics ELISA plate reader. […]
# [4] = Pre (before primary vaccination), pooled sera
molecule,measurement,setting,value
CCCCCCCCCCC[C@@H](O)CC(=O)N[C@H]1[C@H](OC[C@H]2O[C@H](OP(=O)(O)O)[C@H](NC(=O)C[C@H](O)CCCCCCCCCCC)[C@@H](OC(=O)C[C@H](O)CCCCCCCCCCC)[C@@H]2O)O[C@H](CO)[C@@H](OP(=O)(O)O)[C@@H]1OC(=O)C[C@H](O)CCCCCCCCCCC [Lipid IVA],TNFa,[1],<30 pg/mL
Gp120: fully glycosylated endotoxin-free HIV-1MN gp120 (Virostat Cat. No. 8919),"Gp120-specific serum antibodies (anti-gp120 IgG), dilution of the sera to achieve 50% saturation","BALB/c mice [2]; 5 μg gp120 alone, subcutaneous, Day 14",<10
same,immunogenicity of the antigen dose,"BALB/c mice [2]; 5 μg of gp120 formulated with Alum, preliminary experiments",marginally immunogenic
same,"Gp120-specific serum antibodies (anti-gp120 IgG), dilution of the sera to achieve 50% saturation",BALB/c mice [2]; [4],−10
same,"Gp120-specific serum antibodies (anti-gp120 IgG), dilution of the sera to achieve 50% saturation","BALB/c mice [2]; gp120 alone, subcutaneous, boosted, Day 21",<10
"Hep-Tat: vaccine peptide, heparin-binding domain of HIV-1 Tat (GLGIS YGRKKRRQR; SEQ ID NO: 1), Multiple Antigen Peptide (GLGISYGRKKRRQR; also: multiple antigen peptide format)","Tat-specific antibodies (Hep-Tat-specific IgG), dilution of the sera to achieve the 50% saturation","BALB/c mice [3]; 50 μg Hep-Tat alone, intraperitoneal, boosted, Day 21",<10
same,"Tat-specific antibodies (Hep-Tat-specific IgG), dilution of the sera to achieve the 50% saturation","BALB/c mice [3]; 50 μg Hep-Tat alone, intraperitoneal, Day 14",<10
same,immunogenicity of the antigen dose,"BALB/c mice [3]; 50 μg of Hep-Tat formulated with Alum (Pierce), preliminary experiments",marginally immunogenic
same,"Tat-specific antibodies (Hep-Tat-specific IgG), dilution of the sera to achieve the 50% saturation",BALB/c mice [3]; [4],<10

# — patent US6759241B1, “Adjuvant comprising a lipopolysaccharide antagonist” (priority 1999, dated 2004)
